One data set deals with Cryptosporidium parvum. The data set is described as follows: qRT-PCR assay of the growth of C. parvum in vitro in HCT-8 host cells (primary and secondary screening, EC50). The class given is cell-based. The settings on record: Cryptosporidium parvum; for inhibition at 10 µM / inhibition at 3.3 µM: HCT-8; for inhibition at 10 µM: primary screening at 10 uM, read-out: Inhibition (%); for inhibition at 3.3 µM: secondary screening at 3.3 uM, read-out: % Inhibition (3.3 uM); for EC50: growth of C. parvum in vitro, HCT-8 host cells, 44 h infection. A general note: Quantitative PCR measures a nucleic acid by following its amplification.

The test system of another data set is HCT-8 cells. The data set is described as follows: In vitro cytotoxicity MTS assay on host cells. The class given is cell-based, human. The following applies: 41 h. On the procedure: The plates were measured for absorbance at 490 nm in 15 min intervals in a SmartReader 96 microplate reader (Accuris, Edison, NJ, United States). Cytotoxicity of a compound was quantified by calculating the half maximal toxic concentration on host cells (TC50). An in vitro safety interval (SI) was calculated by determining the ratio between TC50 and EC50 values (i.e., SI = TC50/EC50).

The next data set is described as follows: in vitro. The settings on record: for cytotoxicity at 41 h, 10 µM: human.
Setting [1] is: primary screening at 10 uM, treated vs control.

SMILES strings stand for the structures. Counter-ions that a name gives are not always drawn. Like-named read-outs stand apart in the source and are kept apart here. *1 amine or outer side, *2 acyl side, *3 side chain or, on linkers, in order; H or OH if unused. Where a SMILES comes first, the peptide text is derived from it. Bridges are numbered along the chain shown (N, C = ends). Roman numbers before positions name the chains, in order. [ ]: non-standard residue; d: D form. Actinocin(9to1) = Cc1c2oc3c(C)ccc(C(=O)[*:1])c3nc-2c(C(=O)[*:2])c(N)c1=O; NMeV = CN[C@H](C(=O)O)C(C)C; Sar = CNCC(=O)O

For `COc1ccc(C(=O)c2ccc(O)cc2)c(O)c1O` [2,3,4′-Trihydroxy-4-methoxybenzophenone], the “Hs18S ΔCT” value with HCT-8 host cells (Hs18S) (human, 41 h, 10 μM) came out at 0.10. Further, in the data set on Cryptosporidium parvum, the inhibition at 10 µM turned out to be 83.2%, the inhibition at 3.3 µM worked out at 59% and a half-maximal response (EC50) required 3690 nM. In addition, in the data set on HCT-8 cells (HCT-8 cells, MTS), the TC50 is over 100000 nM. Also, the cytotoxicity at 41 h, 10 µM in “in vitro” came to 6.4%.

Consider `COC(=O)C[C@H]1C(C)(C)[C@@H](O)[C@@H]2CC3=C4C=C(OC)O[C@@H](c5ccoc5)[C@]4(C)CCC3[C@@]1(C)C2=O` (stereo partly drawn) [3-Deoxo-3beta-hydroxy-mexicanolide 16-enol ether], for which, in the data set on HCT-8 host cells (Hs18S) (human, 41 h, 10 μM), the “Hs18S ΔCT” value is -0.49. For the same compound, in the data set with Cryptosporidium parvum, the inhibition at 10 µM was determined as 90%; the inhibition at 3.3 µM worked out at 71%; the midpoint of the response, the EC50, lay at 3940 nM. This compound also gave a TC50 with HCT-8 cells (HCT-8 cells, MTS) of over 100000 nM. For the same compound, the cytotoxicity at 41 h, 10 µM in “in vitro” was -40.1%.

In the case of `O=c1cc(-c2ccccc2)oc2cc(O)c(O)c(O)c12` [Baicalein], the “Hs18S ΔCT” value with HCT-8 host cells (Hs18S) (human, 41 h, 10 μM) was found to be 0.10. Moreover, in the data set with Cryptosporidium parvum, the inhibition at 10 µM was 81.3%; the inhibition at 3.3 µM was 66%; the midpoint of the response, the EC50, lay at 981 nM. The compound also registered a TC50 with HCT-8 cells (human) of over 100000 nM. Besides, in “in vitro”, the cytotoxicity at 41 h, 10 µM worked out at 6.7%.

For `CC1(C)C(=O)C=C[C@@]2(C)C1=C(O)C(=O)[C@]1(C)[C@@H]2CC[C@@]2(C)[C@H](c3ccoc3)C[C@H]3O[C@]321` [Cedrelone], in the data set with HCT-8 host cells (Hs18S) (human, 41 h, 10 μM), the “Hs18S ΔCT” value is recorded as 1.38. Also, in the data set on Cryptosporidium parvum, the inhibition at 10 µM worked out at 99.5% and the EC50 stood at 267 nM. Besides, the TC50 in the data set with HCT-8 cells (human) stood at 3590 nM. In addition, the cytotoxicity at 41 h, 10 µM in the data set “in vitro” was 61.7%.

As for `Cc1c2oc3c(C)ccc(C(=O)N[C@@H]4C(=O)N[C@H](C(C)C)C(=O)N5CCC[C@H]5C(=O)N(C)CC(=O)N(C)[C@@H](C(C)C)C(=O)O[C@@H]4C)c3nc-2c(C(=O)N[C@@H]2C(=O)N[C@H](C(C)C)C(=O)N3CCC[C@H]3C(=O)N(C)CC(=O)N(C)[C@@H](C(C)C)C(=O)O[C@@H]2C)c(N)c1=O` [Dactinomycin, reference compound] (I: T[dV]P[Sar][NMeV] / II: T[dV]P[Sar][NMeV]; ester I:1-I:C, II:1-II:C; linker I:N-II:N via Actinocin(9to1)), in the data set with HCT-8 host cells (Hs18S) (setting [1]), the “Hs18S ΔCT” value turned out to be 1.50. For the same compound, in the data set with Cryptosporidium parvum, the inhibition at 10 µM was 94.3%, the inhibition at 3.3 µM is 97% and the concentration for a half-maximal effect (EC50) came to 314 nM. For the same compound, the TC50 in the data set on HCT-8 cells (HCT-8 cells, MTS) is 2820 nM. In addition, the cytotoxicity at 10 µM in the data set “in vitro” was found to be 64.6%.

Regarding `CC1(C)C(=O)C=C[C@]2(C)[C@H]3CC[C@@]4(C)[C@H](c5ccoc5)OC(=O)[C@H]5O[C@]54[C@]3(C)C(=O)C[C@@H]12` [Deacetoxy-7-oxogedunin], the “Hs18S ΔCT” value with HCT-8 host cells (Hs18S) (setting [1]) came to 0.39. Moreover, in the data set with Cryptosporidium parvum, the inhibition at 10 µM is 88.7%, the inhibition at 3.3 µM stood at 77% and the EC50 was 1940 nM. This compound also came in with a TC50 with HCT-8 cells (HCT-8 cells, MTS) of 12800 nM. Further, in “in vitro”, the cytotoxicity at 10 µM amounted to 23.6%.

On to `CC1(C)C(=O)C=C[C@]2(C)[C@H]3CC[C@@]4(C)[C@H](c5ccoc5)OC(=O)[C@H]5O[C@]54[C@]3(C)[C@H](O)C[C@@H]12` [Deacetylgedunin], for which the “Hs18S ΔCT” value with HCT-8 host cells (Hs18S) (setting [1]) amounted to 0.23. Moreover, in the data set with Cryptosporidium parvum, the inhibition at 10 µM was found to be 91.1%, the inhibition at 3.3 µM turned out to be 56% and the concentration giving a half-maximal response (EC50) came out at 1770 nM. Further, the TC50 in the data set on HCT-8 cells (HCT-8 cells, MTS) turned out to be 30900 nM. In addition, in “in vitro”, the cytotoxicity at 10 µM came out at 14.8%.

In the case of `COc1ccc2c(c1)OCC(Cc1ccc(OC)c(OC(C)=O)c1)C2=O` (stereo not drawn) [Deoxysappanone B 7,3′-dimethyl ether acetate], in the data set on HCT-8 host cells (Hs18S) (human, 41 h, 10 μM), the “Hs18S ΔCT” value was found to be 0.24. In addition, in the data set on Cryptosporidium parvum, the inhibition at 10 µM stood at 87.4%; the inhibition at 3.3 µM worked out at 71%; the midpoint of the response, the EC50, lay at 1190 nM. For the same compound, the TC50 in the data set with HCT-8 cells (HCT-8 cells, MTS) is over 100000 nM. Further, in “in vitro”, the cytotoxicity at 41 h, 10 µM is 15.5%.

Take `CC[C@]1(O)C[C@@H]2CN(CCc3c([nH]c4ccccc34)[C@@](C(=O)OC)(c3cc4c(cc3OC)N(C)[C@H]3[C@@](O)(C(=O)OC)[C@H](OC(C)=O)[C@]5(CC)C=CCN6CC[C@]43[C@@H]65)C2)C1` [VINBLASTINE SULFATE]: in the data set with HCT-8 host cells (Hs18S) (human, 41 h, 10 μM), the “Hs18S ΔCT” value came to 0.81. For the same compound, in the data set on Cryptosporidium parvum, the inhibition at 10 µM stood at 71.7% and the inhibition at 3.3 µM was 67%. The cytotoxicity at 41 h, 10 µM in “in vitro” was 43%.

In the case of `CC[C@]12CCCN3CCc4c(n(c5ccccc45)[C@@](O)(C(=O)OC)C1)[C@@H]32` [VINCAMINE], the “Hs18S ΔCT” value in the data set on HCT-8 host cells (Hs18S) (human, 41 h, 10 μM) came out at 0.12. Further, in the data set with Cryptosporidium parvum, the inhibition at 10 µM was -20.8%. Moreover, the cytotoxicity at 41 h, 10 µM in the data set “in vitro” came to 8.2%.

For `COc1cc(C/C=C/c2ccccc2)c(OC)cc1O` [VIOLASTYRENE], in the data set on HCT-8 host cells (Hs18S) (human, 41 h, 10 μM), the “Hs18S ΔCT” value is -0.30. For the same compound, the inhibition at 10 µM with Cryptosporidium parvum is -23.6%. In addition, in the data set “in vitro”, the cytotoxicity at 41 h, 10 µM was -23.3%.

In the case of `COc1c2ccoc2cc2oc(C)cc(=O)c12` [VISNAGIN], the “Hs18S ΔCT” value with HCT-8 host cells (Hs18S) (human, 41 h, 10 μM) is -0.27. The inhibition at 10 µM with Cryptosporidium parvum amounted to 15.1%. Moreover, in “in vitro”, the cytotoxicity at 41 h, 10 µM was -20.7%.

As for `COC(=O)/C(=C1/OC(=O)C(c2ccccc2)=C1O)c1ccccc1` [VULPINIC ACID], in the data set with HCT-8 host cells (Hs18S) (human, 41 h, 10 μM), the “Hs18S ΔCT” value worked out at 0.64. The inhibition at 10 µM in the data set on Cryptosporidium parvum is -77.9%. Besides, in “in vitro”, the cytotoxicity at 41 h, 10 µM was determined as 36%.

Turning to `O=c1c2ccccc2oc2ccccc12` [XANTHONE], the “Hs18S ΔCT” value with HCT-8 host cells (Hs18S) (human, 41 h, 10 μM) was 0.13. The inhibition at 10 µM with Cryptosporidium parvum came out at 0.45%. Moreover, the cytotoxicity at 41 h, 10 µM in the data set “in vitro” came to 8.9%.

For `Nc1nc(=O)c2[nH]c(=O)cnc2[nH]1` [XANTHOPTERIN], in the data set on HCT-8 host cells (Hs18S) (human, 41 h, 10 μM), the “Hs18S ΔCT” value worked out at 0.47. Further, the inhibition at 10 µM in the data set on Cryptosporidium parvum worked out at 22.7%. In addition, the cytotoxicity at 41 h, 10 µM in the data set “in vitro” was determined as 27.9%.

For orientation: inhibition means the relative decrease from the control value, in per cent. By EC50 is commonly meant the concentration giving half of the maximal effect. A low value points to a more potent agent.

The record behind these values is PMC6736568, “Discovery of Novel Anti-cryptosporidial Activities From Natural Products by in vitro High-Throughput Phenotypic Screening” (Frontiers in Microbiology, 2019).
